Drawing on patent US12173018B2, “Penicillin-binding protein inhibitors” (priority 2018, dated 2024), this text covers MIC and EC50 for six compounds.

For one test, the system named is E. coli ATCC 25922. Description: Broth microdilution MIC, E. coli ATCC 25922. The class given is cell-based. As to conditions: Escherichia coli, ATCC25922; E. coli ATCC 25922, broth microdilution; read-out: MIC E. coli 25922. Summed up:
(§1)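 Following CLSI guidance, growth inhibition is measured in Mueller-Hinton broth with divalent cations. Inoculum 5×10^5 CFU/mL; incubation 16-20 hours, 37° C; endpoint is visual absence of growth.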
(Broth dilution looks for growth in wells or tubes with falling amounts of substance.)

The test system of a further test is N. gonorrhoeae FA19. The experiment in a line: Liquid broth MIC, N. gonorrhoeae FA19. The class given is cell-based. To be noted: Neisseria gonorrhoeae; N. gonorrhoeae FA19, liquid broth; read-out: Minimum Inhibitory Concentration, N. gonorrhoeae FA19. How it is done:
(§2) Additional antibacterial testing of the series was performed in wild-type reference strains of N. gonorrhoeae (ATCC 49226, FA1090, WHO F and FA19). Liquid broth-based assays were used for antibacterial testing of PBP inhibitors in Neisseria gonorrhoeae. Briefly, cryo-preserved bacterial cultures of clinical strains are streaked for isolation on GC Base agar (BD #228950 at 36 g/L autoclaved at 121° C. for 20 minutes to sterilize) with 1% Kellogg's supplement (40 g glucose, 0.5 g glutamine, 0.05 g ferric nitrate and 2 mg cocarboxylase per 100 mL deionized water filter sterilized through 0.2 μm syringe filters). Following incubation at 36° C. and 5% CO2 to allow growth of colonies, strains are aseptically sub-cultured from original agar plate onto 3 agar plates per strain 24 hours before inoculum preparation. 2-fold serial dilutions of test compounds are conducted in a 96 well plate with a final volume of 150 μL per well at 4/3-fold the final desired concentration. For preparation of assay inoculum, a direct suspension is prepared by aseptically swabbing all colonies from sub-cultured agar plates into culture tubes containing 2 mL of fresh GC broth with […]. After the dilution plates are set up, direct suspensions are then diluted in a cuvette containing GC broth (15 g proteose peptone 43, 1 g corn starch, 4 g dipotassium phosphate, 1 g monopotassium phosphate and 5 g sodium chloride per liter of deionized water are mixed on a stir plate for 20 minutes, pH adjusted to 7.2+/−0.2 pH units with 1 N HCl, centrifuged at 10,000×g for 20 minutes to pellet undissolved corn starch and then autoclaved at 121° C. for 20 minutes to sterilize) and the optical density is measured at 600 nm. Inocula are diluted such that 50 μL of this culture in […] results in a starting bacterial concentration of 5×10^5 CFU/mL when added to the dilution plates. The plates are incubated 40-42 hours at 36° C. and 5% CO2. The MIC is read visually as the lowest concentration well with no bacterial growth.

Test [1] relates to N. gonorrhoeae ATCC 49226. Description: Liquid broth MIC, N. gonorrhoeae ATCC 49226. The class given is cell-based. As to conditions: Neisseria gonorrhoeae, ATCC49226; N. gonorrhoeae ATCC 49226, liquid broth; read-out: Minimum Inhibitory Concentration, N. gonorrhoeae ATCC 49226. As to the method:
as §2

Another test concerns K. pneumoniae 848844. The experiment in a line: microbe, parasite or virus in culture. The class given is cell-based, Klebsiella pneumoniae. As to conditions: Klebsiella pneumoniae; K. pneumoniae 848844 producing SHV-11 and KPC-2; read-out: MIC K. pneumoniae 848844. In short, it runs like this: as §1
For another test, the target named is E. coli PBP3 (Escherichia coli (strain K12), UniProt P0AD68). Description: E. coli PBP3 Bocillin-FL fluorescence polarization competition binding assay. Summed up: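 Polarization at 490/520 nm was monitored for 60 minutes in pH 8.0 Hepes buffer containing 300 mM NaCl and 5% glycerol, with compound spanning 0–1000 μM.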
Chain of E. coli PBP3 (P0AD68 whole entry): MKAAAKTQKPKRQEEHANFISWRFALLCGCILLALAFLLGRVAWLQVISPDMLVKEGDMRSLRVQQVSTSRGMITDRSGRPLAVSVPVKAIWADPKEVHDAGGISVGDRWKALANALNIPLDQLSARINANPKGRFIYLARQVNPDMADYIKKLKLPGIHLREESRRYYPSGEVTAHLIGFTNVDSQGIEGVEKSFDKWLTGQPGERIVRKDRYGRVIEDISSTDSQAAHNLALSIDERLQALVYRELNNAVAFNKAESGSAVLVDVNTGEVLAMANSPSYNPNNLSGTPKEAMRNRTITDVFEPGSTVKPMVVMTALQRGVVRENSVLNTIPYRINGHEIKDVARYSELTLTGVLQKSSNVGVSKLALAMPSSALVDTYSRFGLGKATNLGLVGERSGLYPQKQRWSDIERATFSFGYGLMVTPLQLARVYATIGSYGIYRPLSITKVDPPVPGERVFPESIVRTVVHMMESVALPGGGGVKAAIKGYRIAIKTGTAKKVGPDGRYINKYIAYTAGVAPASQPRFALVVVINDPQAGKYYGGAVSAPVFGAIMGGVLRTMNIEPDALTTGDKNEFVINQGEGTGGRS
A general note: Polarisation of emitted light reports the rotation of a fluorescent probe.

For the next test, the system named is N. gonorrhoeae WHO F. The experiment in a line: Liquid broth MIC, N. gonorrhoeae WHO F. The class given is cell-based. As to conditions: Neisseria gonorrhoeae; N. gonorrhoeae WHO F, liquid broth; read-out: Minimum Inhibitory Concentration, N. gonorrhoeae WHO F. As to the method: as §2
The subject of another test is N. gonorrhoeae FA1090. The experiment in a line: Liquid broth MIC, N. gonorrhoeae FA1090. The class given is cell-based. To be noted: Neisseria gonorrhoeae; N. gonorrhoeae FA1090, liquid broth; read-out: Minimum Inhibitory Concentration, N. gonorrhoeae FA1090. As to the method: as §2
In another test the test system is K. pneumoniae UMM. Description: microbe, parasite or virus in culture. To be noted: Klebsiella pneumoniae; K. pneumoniae UMM producing SHV-5 and KPC-2; read-out: MIC K. pneumoniae UMM. The class given is cell-based. Summed up: as §1
For a further test, the system named is E. coli 901C. The experiment in a line: microbe, parasite or virus in culture. The class given is cell-based. To be noted: Escherichia coli; hyper-permeable E. coli 901C, broth microdilution; read-out: MIC E. coli 901C. Summed up: as §1
The next test deals with K. pneumoniae SI-117. Description: microbe, parasite or virus in culture. The class given is cell-based. As to conditions: Klebsiella pneumoniae, SI117, read-out: MIC K. pneumoniae SI-117. Summed up: as §1
The test system of a further test is E. coli AG100A. Description: microbe, parasite or virus in culture. The class given is cell-based. As to conditions: Escherichia coli, read-out: MIC E. coli AG100A. In short, it runs like this: as §1
For the next test, the system named is E. coli D22. Description: microbe, parasite or virus in culture. The class given is cell-based. As to conditions: Escherichia coli; hyper-permeable E. coli D22, broth microdilution; read-out: MIC E. coli D22. Summed up:
as §1

Another test has as its system E. coli AG100. The experiment in a line: Broth microdilution MIC, E. coli AG100 (wild-type parent). As to conditions: Escherichia coli; wild-type parent E. coli AG100, broth microdilution; read-out: MIC E. coli AG100. The class given is cell-based. In short, it runs like this:
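Broth microdilution in cation-supplemented Mueller-Hinton broth, 2-fold serial compound dilutions, inoculum 5×10^5 CFU/mL from 3-5 h log culture.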

Values after ≈ are worked out from the molar mass of the structure shown. Where two headings read alike, the source gives them in different places.

For `NC(=O)c1ccc(C(NC(=O)N2CCN(CCF)C(=O)C2=O)C(=O)N[C@H]2Cc3cccc(C(=O)O)c3OB2O)cc1` (stereo partly drawn) [Example 187, (3R)-3-(2-(4-carbamoylphenyl)-2-(4-(2-fluoroethyl)-2,3-dioxopiperazine-1-carboxamido)acetamido)-2-hydroxy-3,4-dihydro-2H-benzo[e][1,2]oxaborinine-8-carboxylic acid], the MIC in the test on E. coli ATCC 25922 is 32 to 64 µg/mL; with N. gonorrhoeae FA19 it was 0.25 to 0.5 µg/mL (≈ 0.439 to 0.878 µM); in test [1] it was 0.25 to 0.5 µg/mL (≈ 0.439 to 0.878 µM); with K. pneumoniae 848844, greater than 128 µg/mL; with N. gonorrhoeae WHO F, less than 0.125 µg/mL; in the test with N. gonorrhoeae FA1090, less than 0.125 µg/mL. For the same compound, the MIC in the test with K. pneumoniae UMM was 32 to 64 µg/mL; in the test with E. coli 901C it was less than 0.25 µg/mL; in the test on K. pneumoniae SI-117, greater than 128 µg/mL; in the test with E. coli AG100A, 2 to 4 µg/mL; in the test on E. coli D22, 0.5 to 1 µg/mL; with E. coli AG100, 8 to 16 µg/mL. On E. coli PBP3, this compound had an EC50 of 30 to 500 µM.
As to `CCN1C[C@H](C)N(C(=O)NC(C(=O)N[C@H]2Cc3cccc(C(=O)O)c3OB2O)c2ncc(O)cc2F)C(=O)C1=O` (stereo partly drawn) [Example 192, (3R)-3-(2-((S)-4-ethyl-6-methyl-2,3-dioxopiperazine-1-carboxamido)-2-(3-fluoro-5-hydroxypyridin-2-yl)acetamido)-2-hydroxy-3,4-dihydro-2H-benzo[e][1,2]oxaborinine-8-carboxylic acid], the MIC in the test on E. coli ATCC 25922 is 2 to 4 µg/mL; in the test with N. gonorrhoeae FA19, 1 to 2 µg/mL (≈ 1.79 to 3.59 µM); in [1] it was 1 to 2 µg/mL (≈ 1.79 to 3.59 µM); in the test on K. pneumoniae 848844, 32 to 64 µg/mL; in the test with N. gonorrhoeae WHO F, less than 0.125 µg/mL; with N. gonorrhoeae FA1090, less than 0.125 µg/mL. The MIC was 8 to 16 µg/mL in the test on K. pneumoniae UMM; less than 0.25 µg/mL in the test on E. coli 901C; 32 to 64 µg/mL in the test with K. pneumoniae SI-117; 0.5 to 1 µg/mL in the test on E. coli AG100A; 0.5 to 1 µg/mL in the test on E. coli D22; 8 to 16 µg/mL with E. coli AG100. The EC50 at E. coli PBP3 (fluorescence polarization competition binding with Bocillin-FL, read-out: E. coli K12 PBP3 Potency) was less than 30 µM.
Take `CCN1CCN(C(=O)NC(C(=O)N[C@H]2Cc3cccc(C(=O)O)c3OB2O)c2ncc(O)cn2)C(=O)C1=O` (stereo partly drawn) [Example 202, (3R)-3-(2-(4-ethyl-2,3-dioxopiperazine-1-carboxamido)-2-(5-hydroxypyrimidin-2-yl)acetamido)-2-hydroxy-3,4-dihydro-2H-benzo[e][1,2]oxaborinine-8-carboxylic acid]: the MIC with E. coli ATCC 25922 is 32 to 64 µg/mL; with N. gonorrhoeae FA19 it was 4 to 8 µg/mL (≈ 7.6 to 15.2 µM); in test [1], 4 to 8 µg/mL (≈ 7.6 to 15.2 µM); in the test on K. pneumoniae 848844, greater than 128 µg/mL; with N. gonorrhoeae WHO F, 0.25 to 0.5 µg/mL (≈ 0.475 to 0.95 µM); with N. gonorrhoeae FA1090 it was 0.25 to 0.5 µg/mL (≈ 0.475 to 0.95 µM). The MIC in the test on K. pneumoniae UMM was in the range of 32 to 64 µg/mL; with E. coli 901C it was 0.5 to 1 µg/mL; in the test on K. pneumoniae SI-117, 32 to 64 µg/mL; with E. coli AG100A, 2 to 4 µg/mL; with E. coli D22 it was 8 to 16 µg/mL; in the test with E. coli AG100, 32 to 64 µg/mL. This compound registered an EC50 at E. coli PBP3 of 30 to 500 µM.
Turning to `NS(=O)(=O)c1ccc(C(NC(=O)N2CCN(CCF)C(=O)C2=O)C(=O)N[C@H]2Cc3cccc(C(=O)O)c3OB2O)cc1F` (stereo partly drawn) [Example 211, (3R)-3-(2-(3-fluoro-4-sulfamoylphenyl)-2-(4-(2-fluoroethyl)-2,3-dioxopiperazine-1-carboxamido)acetamido)-2-hydroxy-3,4-dihydro-2H-benzo[e][1,2]oxaborinine-8-carboxylic acid], the MIC with E. coli ATCC 25922 is 32 to 64 µg/mL; with N. gonorrhoeae FA19, 4 to 8 µg/mL (≈ 6.42 to 12.8 µM); in test [1], 4 to 8 µg/mL (≈ 6.42 to 12.8 µM); in the test on K. pneumoniae 848844, greater than 128 µg/mL; in the test with N. gonorrhoeae WHO F, 0.25 to 0.5 µg/mL (≈ 0.401 to 0.802 µM); in the test on N. gonorrhoeae FA1090, 0.25 to 0.5 µg/mL (≈ 0.401 to 0.802 µM). Besides, the MIC in the test on K. pneumoniae UMM is 32 to 64 µg/mL; with E. coli 901C, less than 0.25 µg/mL; in the test with K. pneumoniae SI-117 it was greater than 128 µg/mL; in the test on E. coli AG100A, 2 to 4 µg/mL; in the test with E. coli D22, 2 to 4 µg/mL; in the test on E. coli AG100 it was 32 to 64 µg/mL. The compound further displayed an EC50 on E. coli PBP3 of 30 to 500 µM.
For `CCN1CCN(C(=O)NC(C(=O)N[C@H]2Cc3cccc(C(=O)O)c3OB2O)c2ncc(N)cc2F)C(=O)C1=O` (stereo partly drawn) [Example 214, (3R)-3-(2-(5-amino-3-fluoropyridin-2-yl)-2-(4-ethyl-2,3-dioxopiperazine-1-carboxamido)acetamido)-2-hydroxy-3,4-dihydro-2H-benzo[e][1,2]oxaborinine-8-carboxylic acid], the MIC in the test on E. coli ATCC 25922 is 8 to 16 µg/mL; with N. gonorrhoeae FA19 it was 4 to 8 µg/mL (≈ 7.38 to 14.8 µM); in [1], 4 to 8 µg/mL (≈ 7.38 to 14.8 µM); with K. pneumoniae 848844 it was 32 to 64 µg/mL; with N. gonorrhoeae WHO F, less than 0.125 µg/mL; in the test with N. gonorrhoeae FA1090, less than 0.125 µg/mL. The MIC was 32 to 64 µg/mL with K. pneumoniae UMM; 0.5 to 1 µg/mL in the test on E. coli 901C; 32 to 64 µg/mL in the test on K. pneumoniae SI-117; 2 to 4 µg/mL with E. coli AG100A; 2 to 4 µg/mL in the test on E. coli D22; 32 to 64 µg/mL in the test on E. coli AG100. The compound also displayed an EC50 at E. coli PBP3 of 30 to 500 µM.
Consider `O=C(O)c1cccc2c1OB(O)[C@@H](NC(=O)C(NC(=O)N1C[C@@H]3CCCN3C(=O)C1=O)c1ncc(O)cc1F)C2` (stereo partly drawn) [Example 223, (3R)-3-(2-((S)-3,4-dioxooctahydropyrrolo[1,2-a]pyrazine-2-carboxamido)-2-(3-fluoro-5-hydroxypyridin-2-yl)acetamido)-2-hydroxy-3,4-dihydro-2H-benzo[e][1,2]oxaborinine-8-carboxylic acid], for which the MIC was greater than 128 µg/mL with E. coli ATCC 25922; greater than 64 µg/mL with N. gonorrhoeae FA19; greater than 64 µg/mL in test [1]; greater than 128 µg/mL in the test with K. pneumoniae 848844; 1 to 2 µg/mL (≈ 1.8 to 3.6 µM) in the test with N. gonorrhoeae WHO F; 1 to 2 µg/mL (≈ 1.8 to 3.6 µM) in the test with N. gonorrhoeae FA1090. For the same compound, the MIC in the test on K. pneumoniae UMM was greater than 128 µg/mL; in the test with E. coli 901C, 8 to 16 µg/mL; in the test on K. pneumoniae SI-117, greater than 128 µg/mL; with E. coli AG100A, 32 to 64 µg/mL; with E. coli D22 it was 32 to 64 µg/mL; in the test on E. coli AG100 it was greater than 128 µg/mL. Also, the EC50 on E. coli PBP3 lay within 30 to 500 µM.
